Results taken from US20240217968A1, “PHARMACEUTICAL COMPOUND” (DUKE STREET BIO LIMITED, priority 2021, published 2024).

biological target: T1, recombinant human Flag-tagged PARP7 (amino acids 456-657) (Homo sapiens, UniProt Q7Z3E1); assay: PARP7 biochemical DELFIA assay (auto-MARylation); conditions: DELFIA readout, IC50 class
T1 construct: recombinant human Flag-tagged PARP7 (amino acids 456-657)
T1 sequence (Q7Z3E1 456-657): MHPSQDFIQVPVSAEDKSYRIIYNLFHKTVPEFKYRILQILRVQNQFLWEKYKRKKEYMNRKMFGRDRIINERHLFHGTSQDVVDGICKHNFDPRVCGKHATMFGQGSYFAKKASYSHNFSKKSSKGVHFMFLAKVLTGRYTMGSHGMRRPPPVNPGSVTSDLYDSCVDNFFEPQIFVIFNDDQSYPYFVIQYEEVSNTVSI
Description: A suitable assay may be conducted using 10-30 nM PARP7 (amino acids 456-657), 2 μM biotin-NAD assay solution in 20 mM HEPES (pH 7.5), 100 mM NaCl, 2 mM DTT, 0.1% BSA (w/v), 0.02% Tween (v/v) assay buffer. MARylation may take place for 2-3 h at room temperature and may be detected using a dissociation-enhanced lanthanide fluorescence immunoassay (DELFIA) readout. This assay format has been recently utilised for screening for modulators of PARP7 and other MonoPARP enzymes ([…]. et al. Forced Self-Modification Assays as a Strategy to Screen MonoPARP Enzymes. SLAS Discovery. 25; 241-252, (2020)). A particularly suitable assay is described in the Examples below. Optiplate HB 384-well plates were coated with anti-FLAG antibody, supplied as a 4 mg/ml solution, using a Na2CO3/HCO3 coating buffer at pH 9.6, overnight at 4° C., in order to achieve a final immobilisation per well of 0.3 μg. Wells were then washed 3× in coating wash buffer (PBS/0.05% Tween (v/v)), blocked with 2% BSA (w/v) in coating wash buffer and washed 3 further times prior to assay. For the assay 20 μl of 12.5-37.5 nM recombinant human Flag-tagged PARP7 (amino acids 456-657) was added to each well of the 384-well plate for 30 min at room temperature. 50 nl of test compound in DMSO was added using pintool technology and plates were incubated for a further 30 min at room temperature. 5 μl of 15 μM biotin-NAD^+ assay solution in 20 mM HEPES (pH 7.5), 100 mM NaCl, 2 mM DTT, 0.1% BSA (w/v), 0.02% Tween (v/v) assay buffer was then added and MARylation proceeded for 2-3 h at room temperature prior to the addition of 5 μl of 12 mM NAD^+ quenching solution. After 30 min at room temperature, assay solution was removed and following washing 5 times, 100 μl of a 1:1000 dilution of DELFIA Eu-N1 Streptavidin reagent was added. Plates were then incubated for 30 min at room temperature. Reaction mixture was removed and plates washed 5 times prior to the addition of 25 μl DELFIA enhancement solution. Following incubation for 30 min at room temperature, fluorescence was read on either an Envision or Pherastar FS (Ex337 nm, Em620 nm).

SMILES	IC50
Cc1nn(CCOCCC(=O)N2CCN(c3ncc(C(F)(F)F)cn3)C(C)C2)c2cn[nH]c(=O)c12 (single isomer, unassigned) [Compound 255]	≤ 100 nM
CC(COCCC(=O)N1CCN(c2ncc(C(F)(F)F)s2)CC1)n1nc(C(F)(F)F)c2c(=O)[nH]ncc21 (single isomer, unassigned) [Compound 258]	≤ 100 nM
Cc1nn(C(C)COCCC(=O)N2CCN(c3ncc(C#N)cn3)CC2)c2cn[nH]c(=O)c12 (single isomer, unassigned) [Compound 262]	≤ 100 nM
Cc1nn(C(C)COCCC(=O)N2CCN(c3ncc(C#N)cn3)CC2)c2cn[nH]c(=O)c12 (single isomer, unassigned) [Compound 263]	≤ 100 nM
CC(COCCC(=O)N1CCN(c2cnc(C(F)(F)F)cn2)CC1)n1nc(C(F)(F)F)c2c(=O)[nH]ncc21 (single isomer, unassigned) [Compound 266]	≤ 100 nM
CC(COCCC(=O)N1CCN(c2ccc(C#N)cn2)CC1)n1nc(C(F)(F)F)c2c(=O)[nH]ncc21 (single isomer, unassigned) [Compound 270]	≤ 100 nM
CC(COCCC(=O)N1CCN(c2ccc(OC(F)F)cn2)CC1)n1nc(C(F)(F)F)c2c(=O)[nH]ncc21 (single isomer, unassigned) [Compound 274]	≤ 100 nM
CC(COCCC(=O)N1CCN(c2ccc(C3CC3)cn2)CC1)n1nc(C(F)(F)F)c2c(=O)[nH]ncc21 (single isomer, unassigned) [Compound 279]	≤ 100 nM
CC(COCCC(=O)N1CCN(c2ncc(C3CC3)cn2)CC1)n1nc(C(F)(F)F)c2c(=O)[nH]ncc21 (single isomer, unassigned) [Compound 280]	≤ 100 nM
CC(COCCC(=O)N1CCN(c2ncc(C3CC3)cn2)CC1)n1nc(C(F)(F)F)c2c(=O)[nH]ncc21 (single isomer, unassigned) [Compound 281]	≤ 100 nM
CC(COCCC(=O)N1CCN(c2ncc(C#N)s2)CC1)n1nc(C(F)(F)F)c2c(=O)[nH]ncc21 (single isomer, unassigned) [Compound 284]	≤ 100 nM
CC(COCCC(=O)N1CCN(c2ncc(C3COC3)cn2)CC1)n1nc(C(F)(F)F)c2c(=O)[nH]ncc21 (single isomer, unassigned) [Compound 289]	≤ 100 nM
CC(COCCC(=O)N1CCN(c2nnc(C(F)(F)F)s2)CC1)n1nc(C(F)(F)F)c2c(=O)[nH]ncc21 (single isomer, unassigned) [Compound 291]	100 to 1000 nM
CC(COCCC(=O)N1CCN(c2ncc(OC(F)F)cn2)CC1)n1nc(C(F)(F)F)c2c(=O)[nH]ncc21 (single isomer, unassigned) [Compound 294]	≤ 100 nM
CNC(=O)c1ccc(N2CCN(C(=O)CCOCC(C)n3nc(C(F)(F)F)c4c(=O)[nH]ncc43)CC2)nc1 (single isomer, unassigned) [Compound 305]	≤ 100 nM
COc1ccc(N2CCN(C(=O)CCOCC(C)n3nc(C(F)(F)F)c4c(=O)[nH]ncc43)CC2)nc1 (single isomer, unassigned) [Compound 306]	≤ 100 nM
CC(COCCC(=O)N1CCN(c2ccc(C3COC3)cn2)CC1)n1nc(C(F)(F)F)c2c(=O)[nH]ncc21 (single isomer, unassigned) [Compound 310]	≤ 100 nM
CC(COCCC(=O)N1CCN(c2ccc(C3COC3)cn2)CC1)n1nc(C(F)(F)F)c2c(=O)[nH]ncc21 (single isomer, unassigned) [Compound 311]	100 to 1000 nM
CC(COCCC(=O)N1CCN(c2nc(C#N)co2)CC1)n1nc(C(F)(F)F)c2c(=O)[nH]ncc21 (single isomer, unassigned) [Compound 318]	100 to 1000 nM
CC(COCCC(=O)N1CCN(c2nc(C#N)co2)CC1)n1nc(C(F)(F)F)c2c(=O)[nH]ncc21 (single isomer, unassigned) [Compound 319]	≤ 100 nM

SMILES	IC50
CC(COCCC(=O)N1CCN(c2ncc(C#N)cn2)CC1)n1nc(C(F)(F)F)c2c(=O)[nH]ncc21 (single isomer, unassigned) [Compound 321, 2-(4-(3-(2-(4-oxo-3-(trifluoromethyl)-4,5-dihydro-1H-pyrazolo[3,4-d]pyridazin-1-yl)propoxy)propanoyl)piperazin-1-yl) pyrimidine-5-carbonitrile]	≤ 100 nM
CC(COCCC(=O)N1CCN(c2ncc(C#N)cn2)CC1)n1nc(C(F)(F)F)c2c(=O)[nH]ncc21 (single isomer, unassigned) [Compound 322, 2-(4-(3-(2-(4-oxo-3-(trifluoromethyl)-4,5-dihydro-1H-pyrazolo[3,4-d]pyridazin-1-yl)propoxy)propanoyl)piperazin-1-yl) pyrimidine-5-carbonitrile]	≤ 100 nM
CC(COCCC(=O)N1CCN(c2cnc(C(F)F)cn2)CC1)n1nc(C(F)(F)F)c2c(=O)[nH]ncc21 (single isomer, unassigned) [Compound 323]	≤ 100 nM
CC(COCCC(=O)N1CCN(c2cnc(C(F)F)cn2)CC1)n1nc(C(F)(F)F)c2c(=O)[nH]ncc21 (single isomer, unassigned) [Compound 324]	≤ 100 nM
CNC(=O)c1cnc(N2CCN(C(=O)CCOCC(C)n3nc(C(F)(F)F)c4c(=O)[nH]ncc43)CC2)nc1 (single isomer, unassigned) [Compound 326]	≤ 100 nM
CC(CCOCC(=O)N1CCN(c2ncc(C(F)(F)F)cn2)CC1)n1nc(C(F)(F)F)c2c(=O)[nH]ncc21 (single isomer, unassigned) [Compound 327, 1-(4-(2-oxo-2-(4-(5-(trifluoromethyl)pyrimidin-2-yl)piperazin-1-yl)ethoxy)butan-2-yl)-3-(trifluoromethyl)-1,5-dihydro-4H-pyrazolo[3,4-d]pyridazin-4-one]	≤ 100 nM
CC(CCOCC(=O)N1CCN(c2ncc(C(F)(F)F)cn2)CC1)n1nc(C(F)(F)F)c2c(=O)[nH]ncc21 (single isomer, unassigned) [Compound 328, 1-(4-(2-oxo-2-(4-(5-(trifluoromethyl)pyrimidin-2-yl)piperazin-1-yl)ethoxy)butan-2-yl)-3-(trifluoromethyl)-1,5-dihydro-4H-pyrazolo[3,4-d]pyridazin-4-one]	≤ 100 nM
COc1cnc(N2CCN(C(=O)CCOCC(C)n3nc(C(F)(F)F)c4c(=O)[nH]ncc43)CC2)nc1 (single isomer, unassigned) [Compound 331]	≤ 100 nM
COc1cnc(N2CCN(C(=O)CCOCC(C)n3nc(C(F)(F)F)c4c(=O)[nH]ncc43)CC2)nc1 (single isomer, unassigned) [Compound 332]	≤ 100 nM
Cc1nn(C(C)COCCC(=O)N2CCN(c3ncc(Cl)cn3)CC2)c2cn[nH]c(=O)c12 (single isomer, unassigned) [Compound 335]	≤ 100 nM
CCC(COCCC(=O)N1CCN(c2ncc(C(F)(F)F)cn2)CC1)n1cc(C(F)(F)F)c2c(=O)[nH]ncc21 (single isomer, unassigned) [Compound 338]	≤ 100 nM
CCC(COCCC(=O)N1CCN(c2ncc(C(F)(F)F)cn2)CC1)n1cc(C(F)(F)F)c2c(=O)[nH]ncc21 (single isomer, unassigned) [Compound 339]	≤ 100 nM
CC(COCCC(=O)N1CCN(c2noc(C(F)(F)F)n2)CC1)n1nc(C(F)(F)F)c2c(=O)[nH]ncc21 (single isomer, unassigned) [Compound 344]	≤ 100 nM
CC(COCCC(=O)N1CCN(c2ncc(F)cc2F)CC1)n1nc(C(F)(F)F)c2c(=O)[nH]ncc21 (single isomer, unassigned) [Compound 350]	≤ 100 nM
CC(COCCC(=O)N1CCN(c2ncccc2Cl)CC1)n1nc(C(F)(F)F)c2c(=O)[nH]ncc21 (single isomer, unassigned) [Compound 356]	100 to 1000 nM
Cc1c(C)n(C(C)COCCC(=O)N2CCN(c3ncc(C(F)(F)F)cn3)CC2)c2cn[nH]c(=O)c12 (single isomer, unassigned) [Compound 365]	≤ 100 nM
Cc1c(C)n(C(C)COCCC(=O)N2CCN(c3ncc(C(F)(F)F)cn3)CC2)c2cn[nH]c(=O)c12 (single isomer, unassigned) [Compound 366]	≤ 100 nM
CC(COCCC(=O)N1CCN(c2ncccc2F)CC1)n1nc(C(F)(F)F)c2c(=O)[nH]ncc21 (single isomer, unassigned) [Compound 368]	100 to 1000 nM
CC1CN(c2ncc(C(F)(F)F)cn2)CCN1C(=O)CCOCCn1cc(C(F)(F)F)c2c(=O)[nH]ncc21 (single isomer, unassigned) [Compound 370]	≤ 100 nM
